Results as given in ChEMBL document CHEMBL1201862, “PubChem BioAssay data set” (2004).
The source made the active and inactive calls. For most assays here, no stated cut-off is given here; in the data, actives have a measured EC50 and inactives only a lower limit.

What was measured:
[1] = molecular target: Lysosomal acid glucosylceramidase (Homo sapiens, UniProt P04062); test: Dose response cell-based high throughput screening assay to identify enhancers of beta-glucosidase activity. [Related pubchem assays: 784 ]; assay type: functional
Sequence of Lysosomal acid glucosylceramidase (P04062 whole entry): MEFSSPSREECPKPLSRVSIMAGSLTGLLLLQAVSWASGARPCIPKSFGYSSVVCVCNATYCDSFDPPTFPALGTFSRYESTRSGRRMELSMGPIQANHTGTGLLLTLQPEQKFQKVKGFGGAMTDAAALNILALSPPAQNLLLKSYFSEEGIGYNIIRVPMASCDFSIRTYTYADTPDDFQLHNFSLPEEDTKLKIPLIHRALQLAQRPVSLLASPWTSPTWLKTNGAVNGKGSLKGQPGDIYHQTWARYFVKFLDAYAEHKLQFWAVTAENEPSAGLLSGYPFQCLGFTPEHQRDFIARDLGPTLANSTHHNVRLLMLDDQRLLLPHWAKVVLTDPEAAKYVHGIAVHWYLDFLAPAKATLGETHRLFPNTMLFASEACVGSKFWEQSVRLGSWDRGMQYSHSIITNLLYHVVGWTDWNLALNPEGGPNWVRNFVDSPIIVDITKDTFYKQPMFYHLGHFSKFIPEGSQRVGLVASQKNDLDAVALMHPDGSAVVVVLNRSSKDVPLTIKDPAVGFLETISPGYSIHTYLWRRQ

[2] = molecular target: Melanin-concentrating hormone receptor 1 (Homo sapiens, UniProt Q99705); test: Fluorescence-based counterscreen for antagonists of the G-protein coupled receptor 7 (GPR7): cell-based high throughput dose response assay to identify antagonists of the melanin-concentrating hormone receptor 1 (MCHR1).; assay type: functional
Sequence of Melanin-concentrating hormone receptor 1 (Q99705 whole entry): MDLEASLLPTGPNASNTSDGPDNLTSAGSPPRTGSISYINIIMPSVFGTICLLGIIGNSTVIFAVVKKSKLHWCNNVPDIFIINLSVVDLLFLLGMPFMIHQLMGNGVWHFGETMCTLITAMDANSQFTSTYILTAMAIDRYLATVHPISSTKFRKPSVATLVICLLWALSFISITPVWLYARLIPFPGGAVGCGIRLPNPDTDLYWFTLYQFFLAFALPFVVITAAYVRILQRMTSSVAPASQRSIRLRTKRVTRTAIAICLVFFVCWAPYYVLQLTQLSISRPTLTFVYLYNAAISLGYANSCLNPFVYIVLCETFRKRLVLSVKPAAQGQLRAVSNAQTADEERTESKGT

[3] = tested on: BJ; test: cytotoxicity toward BJ-TERT-LT-ST fibroblasts, dose response, cell-based, RAS-independent, luminescence (AID 1935); assay type: functional; details: Homo sapiens;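 further: BJ fibroblasts immortalized with TERT plus LT and ST oncogenes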
[4] = tested on: HEK293; test: cells; assay type: functional, cell-based; details: Homo sapiens
[5] = inhibitors of firefly luciferase expression or activity, dose response, H4 neuroglioma cells, luminescence (AID 1990); assay type: functional, cell-based
[6] = cells; assay type: functional, cell-based
[7] = tested on: HEK293; test: cells; assay type: functional, cell-based; details: Homo sapiens; remark: listed apart in the source
[8] = molecular target: Nucleotide-binding oligomerization domain-containing protein 2 (Homo sapiens, UniProt Q9HC29); test: NOD2 signaling inhibitors, cell-based, luminescence, uHTS, HEK293 (AID 1566); assay type: functional
Sequence of Nucleotide-binding oligomerization domain-containing protein 2 (Q9HC29 whole entry, the tested form may be a part): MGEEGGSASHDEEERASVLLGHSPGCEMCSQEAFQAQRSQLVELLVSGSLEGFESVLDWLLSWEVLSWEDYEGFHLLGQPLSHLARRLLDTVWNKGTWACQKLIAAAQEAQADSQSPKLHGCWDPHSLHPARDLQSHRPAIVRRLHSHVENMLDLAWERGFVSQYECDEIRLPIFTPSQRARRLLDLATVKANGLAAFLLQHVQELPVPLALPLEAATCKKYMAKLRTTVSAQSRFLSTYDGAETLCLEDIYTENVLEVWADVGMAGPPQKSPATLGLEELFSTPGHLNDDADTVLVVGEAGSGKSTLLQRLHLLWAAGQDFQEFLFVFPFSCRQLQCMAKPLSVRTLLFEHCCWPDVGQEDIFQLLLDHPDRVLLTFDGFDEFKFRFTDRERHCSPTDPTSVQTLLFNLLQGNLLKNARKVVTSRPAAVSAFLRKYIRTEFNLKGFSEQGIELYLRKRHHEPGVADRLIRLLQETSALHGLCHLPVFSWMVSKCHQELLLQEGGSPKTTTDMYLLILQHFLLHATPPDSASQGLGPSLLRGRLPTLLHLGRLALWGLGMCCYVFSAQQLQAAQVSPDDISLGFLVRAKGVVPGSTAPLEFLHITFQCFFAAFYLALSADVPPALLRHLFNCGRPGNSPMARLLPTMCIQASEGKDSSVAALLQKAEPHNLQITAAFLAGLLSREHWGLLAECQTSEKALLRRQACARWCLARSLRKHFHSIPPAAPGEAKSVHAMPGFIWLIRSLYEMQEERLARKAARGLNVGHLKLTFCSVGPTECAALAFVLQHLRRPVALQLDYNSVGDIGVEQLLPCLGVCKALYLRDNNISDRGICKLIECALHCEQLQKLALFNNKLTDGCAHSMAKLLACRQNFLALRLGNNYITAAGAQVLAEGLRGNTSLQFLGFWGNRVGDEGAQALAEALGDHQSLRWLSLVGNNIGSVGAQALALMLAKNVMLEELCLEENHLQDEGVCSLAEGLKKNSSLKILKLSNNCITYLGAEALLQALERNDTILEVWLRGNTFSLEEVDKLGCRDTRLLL

[9] = molecular target: T1, Serine/threonine-protein phosphatase (Candida dubliniensis (strain CD36 / CBS 7987 / NCPF 3949 / NRRLY-17841) (Yeast), UniProt B9W6M3); test: calcineurin pathway inhibitors in yeast reporter, dose response, S. cerevisiae, CDRE-lacZ, luminescence, secondary (AID 2388); assay type: functional, cell-based;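 further: yeast reporter cells carrying a calcineurin-responsive lacZ construct stimulated with calcium chloride; luminescent beta-galactosidase reporter signal in whole cells rather than isolated phosphatase activity; potency for inhibition where a drop in reporter signal means calcineurin blockade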
T1 sequence (B9W6M3 whole entry): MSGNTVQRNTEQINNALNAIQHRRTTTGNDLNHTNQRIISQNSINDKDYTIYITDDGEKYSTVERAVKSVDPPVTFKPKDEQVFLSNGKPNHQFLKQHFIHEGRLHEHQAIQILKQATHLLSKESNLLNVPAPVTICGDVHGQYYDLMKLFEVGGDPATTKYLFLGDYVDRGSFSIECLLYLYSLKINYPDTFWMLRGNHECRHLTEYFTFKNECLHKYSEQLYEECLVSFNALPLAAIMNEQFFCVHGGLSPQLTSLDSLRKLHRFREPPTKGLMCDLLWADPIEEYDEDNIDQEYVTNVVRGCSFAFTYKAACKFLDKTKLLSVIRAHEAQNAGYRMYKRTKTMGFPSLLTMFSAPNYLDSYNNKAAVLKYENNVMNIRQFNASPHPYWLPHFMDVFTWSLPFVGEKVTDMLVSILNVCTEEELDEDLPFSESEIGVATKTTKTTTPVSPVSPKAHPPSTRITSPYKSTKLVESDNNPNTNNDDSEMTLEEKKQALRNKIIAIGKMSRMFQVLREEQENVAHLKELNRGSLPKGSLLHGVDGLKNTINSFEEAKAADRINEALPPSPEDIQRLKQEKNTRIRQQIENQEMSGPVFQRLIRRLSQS

[10] = tested on: BJ; test: cytotoxicity toward Ras-transformed BJeLR fibroblasts, dose response, cell-based, alamar blue fluorescence, cherrypicked samples (AID 2631); assay type: functional; details: Homo sapiens;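 further: confirmatory dose-response assay in RAS-dependent BJ fibroblasts engineered with TERT, LT and ST, with cytotoxicity read by fluorescence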
[11] = NIH-3T3 fibroblast cytotoxicity, dose response, cytotoxicity control, cell-based, fluorescence, Alamar Blue, secondary assay (AID 2327); assay type: functional;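 further: NIH-3T3 mouse fibroblasts cultured with fluconazole at 8 µg/mL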
[12] = molecular target: ATP-dependent molecular chaperone HSP82 (Candida albicans (strain WO-1) (Yeast), UniProt C4YTQ8); test: loss of DOC-induced GRE-beta-galactosidase reporter signal, dose response, Hsp90 inhibitor project, S. cerevisiae, luminescence (AID 2400); assay type: functional, cell-based;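 further: beta-galactosidase luminescence from glucocorticoid response element reporter as proxy for Hsp90 function; inhibitor potency where signal loss means Hsp90 inhibition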
Sequence of ATP-dependent molecular chaperone HSP82 (C4YTQ8 whole entry): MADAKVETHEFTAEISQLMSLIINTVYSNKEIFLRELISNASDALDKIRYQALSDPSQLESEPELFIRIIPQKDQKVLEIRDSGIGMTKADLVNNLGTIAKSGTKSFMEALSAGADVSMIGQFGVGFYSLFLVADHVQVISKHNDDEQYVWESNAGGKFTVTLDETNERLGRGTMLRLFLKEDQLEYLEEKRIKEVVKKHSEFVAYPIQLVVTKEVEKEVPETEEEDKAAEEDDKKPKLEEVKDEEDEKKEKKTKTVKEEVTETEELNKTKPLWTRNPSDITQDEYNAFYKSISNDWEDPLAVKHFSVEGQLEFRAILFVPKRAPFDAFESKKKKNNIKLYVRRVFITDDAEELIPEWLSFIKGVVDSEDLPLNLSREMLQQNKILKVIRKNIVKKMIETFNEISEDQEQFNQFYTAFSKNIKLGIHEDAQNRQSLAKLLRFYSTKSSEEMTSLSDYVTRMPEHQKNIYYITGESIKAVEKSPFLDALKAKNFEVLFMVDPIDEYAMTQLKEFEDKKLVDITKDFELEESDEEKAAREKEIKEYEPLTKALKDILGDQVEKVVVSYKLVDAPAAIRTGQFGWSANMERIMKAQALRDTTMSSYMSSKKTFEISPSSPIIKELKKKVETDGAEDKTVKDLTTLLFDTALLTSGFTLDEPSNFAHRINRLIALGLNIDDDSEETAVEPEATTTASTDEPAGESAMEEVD

[13] = tested on: HEK293; test: NOD1 signaling inhibitors, primary screen, cell-based, luminescence, uHTS (AID 1578); assay type: functional; details: Homo sapiens
[14] = C. albicans growth with fluconazole, confirmation, fluorescence, retest (AID 2467); assay type: functional, cell-based
[15] = cytotoxicity toward DRD oncogenic fibroblasts, dose response, cell-based, non-viral oncogenic, luminescence (AID 1934); assay type: functional; details: Homo sapiens
[16] = tested on: HEK293; test: NOD2 signaling inhibitors in MDP-stimulated cells, cell-based, uHTS, luminescence (AID 2001); assay type: functional; details: Homo sapiens
[17] = inhibitors of SNCA 5'UTR-driven translation, confirmation, luminescence, H4 neuroglioblastoma cells, dose confirmation (AID 2454); assay type: functional, cell-based;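 further: H4 neuroglioblastoma cells carrying an alpha-synuclein 5'UTR luciferase reporter; potency for inhibition of the luciferase signal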
[18] = tested on: HEK293; test: cells; assay type: functional, cell-based; details: Homo sapiens; remark: listed apart in the source
[19] = Luminescence Cell-Based Dose Response HTS to Identify Inhibitors of 5'UTR Stem-Loop Driven Prion Protein mRNA Translation in H4 Neuroglioblastoma Cells. [Related pubchem assays: 1827 (Project Summary), 1813 (Primary HTS)]; assay type: functional
[20] = tested on: BJ; test: cytotoxicity toward BJ-TERT fibroblasts, dose response, cell-based, RAS-independent, luminescence (AID 1933); assay type: functional; details: Homo sapiens
[21] = inhibitors of SNCA 5'UTR-driven reporter translation, confirmation, H4 neuroglioma cells, luminescence (AID 1988); assay type: functional, cell-based
[22] = tested on: BJ; test: cells; assay type: functional, cell-based; details: Homo sapiens
[23] = luciferase reporter signal reduction – luminescence, H4-C neuroglioblastoma cells, dose response (AID 2458); assay type: functional, cell-based;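 further: H4 neuroglioblastoma cells stably carrying a luciferase reporter gene fusion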
[24] = Luminescence Cell-Based Dose Confirmation HTS to Identify Inhibitors of Platelet Dense Granule Release. [Related pubchem assays: 1663 (Primary HTS), 1678 (Summary of Project)]; assay type: functional
[25] = inhibition of ADP-Glo detection reagents, dose response, artefact control for CDK5 inhibitor project, biochemical, luminescence, cherry-picked samples, set 2 (AID 504546); assay type: functional
[26] = molecular target: Aspartyl aminopeptidase (Plasmodium falciparum 3D7, UniProt Q8I2J3)
Sequence of Aspartyl aminopeptidase (Q8I2J3 whole entry): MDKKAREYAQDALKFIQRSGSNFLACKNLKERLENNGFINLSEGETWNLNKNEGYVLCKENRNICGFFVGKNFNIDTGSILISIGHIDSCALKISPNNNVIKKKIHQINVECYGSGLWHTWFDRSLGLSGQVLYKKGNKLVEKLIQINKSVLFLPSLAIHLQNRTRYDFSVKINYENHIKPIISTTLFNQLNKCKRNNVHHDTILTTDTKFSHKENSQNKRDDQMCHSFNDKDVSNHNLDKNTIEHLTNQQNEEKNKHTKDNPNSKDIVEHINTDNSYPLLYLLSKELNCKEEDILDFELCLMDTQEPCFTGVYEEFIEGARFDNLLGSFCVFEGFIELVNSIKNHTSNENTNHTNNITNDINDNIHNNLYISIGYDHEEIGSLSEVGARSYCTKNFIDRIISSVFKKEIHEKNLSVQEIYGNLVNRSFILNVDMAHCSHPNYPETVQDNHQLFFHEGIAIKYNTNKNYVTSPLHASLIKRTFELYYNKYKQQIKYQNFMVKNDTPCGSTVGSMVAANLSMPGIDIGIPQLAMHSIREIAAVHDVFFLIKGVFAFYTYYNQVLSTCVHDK

[27] = molecular target: Procathepsin L (Homo sapiens, UniProt P07711)
Sequence of Procathepsin L (P07711 whole entry): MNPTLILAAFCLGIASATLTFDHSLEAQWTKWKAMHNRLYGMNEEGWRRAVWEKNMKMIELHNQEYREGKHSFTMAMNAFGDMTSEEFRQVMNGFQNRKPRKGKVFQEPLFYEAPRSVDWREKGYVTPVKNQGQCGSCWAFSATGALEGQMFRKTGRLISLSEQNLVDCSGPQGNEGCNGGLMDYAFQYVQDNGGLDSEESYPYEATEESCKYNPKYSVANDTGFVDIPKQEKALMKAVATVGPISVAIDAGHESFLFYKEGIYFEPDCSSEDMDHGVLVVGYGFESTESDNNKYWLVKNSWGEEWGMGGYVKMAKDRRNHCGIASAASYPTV

[28] = molecular target: Bcl-2-like protein 1 (Homo sapiens, UniProt Q07817); test: BCL-XL inhibitors, dose response, selectivity assay for MCL1 inhibitor project, biochemical, fluorescence polarization, 1536-well (AID 2218)
Sequence of Bcl-2-like protein 1 (Q07817 whole entry): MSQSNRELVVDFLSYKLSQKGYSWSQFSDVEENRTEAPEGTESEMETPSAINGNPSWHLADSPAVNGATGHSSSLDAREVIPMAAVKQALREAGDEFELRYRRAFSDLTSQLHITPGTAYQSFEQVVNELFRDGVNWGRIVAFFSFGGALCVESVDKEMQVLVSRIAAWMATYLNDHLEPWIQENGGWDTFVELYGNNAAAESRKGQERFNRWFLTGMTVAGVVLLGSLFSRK

[29] = molecular target: Induced myeloid leukemia cell differentiation protein Mcl-1 (Homo sapiens, UniProt Q07820); test: MCL1-BIM BH3 interaction inhibitors, dose response, biochemical, fluorescence polarization, BIM-BH3 peptide, 1536-well (AID 2217)
[30] = molecular target: Cytochrome P450 2C9 (Homo sapiens, UniProt P11712); details: Potency
Sequence of Cytochrome P450 2C9 (P11712 whole entry): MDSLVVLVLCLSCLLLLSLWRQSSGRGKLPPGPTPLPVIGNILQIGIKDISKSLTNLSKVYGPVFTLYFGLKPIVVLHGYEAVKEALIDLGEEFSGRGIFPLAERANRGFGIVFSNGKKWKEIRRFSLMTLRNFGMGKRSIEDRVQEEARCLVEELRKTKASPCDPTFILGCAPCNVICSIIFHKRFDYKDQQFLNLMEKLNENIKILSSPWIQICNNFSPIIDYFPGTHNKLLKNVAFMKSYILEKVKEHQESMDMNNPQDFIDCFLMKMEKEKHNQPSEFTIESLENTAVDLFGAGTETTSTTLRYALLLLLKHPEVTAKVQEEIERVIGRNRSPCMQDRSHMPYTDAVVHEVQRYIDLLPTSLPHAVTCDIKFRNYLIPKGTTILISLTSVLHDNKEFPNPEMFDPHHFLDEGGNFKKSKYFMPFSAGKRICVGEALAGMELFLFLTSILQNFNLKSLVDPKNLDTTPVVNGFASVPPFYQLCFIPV

[31] = molecular target: Cytochrome P450 2C19 (Homo sapiens, UniProt P33261); test: qHTS Assay for Inhibitors and Substrates of Cytochrome P450 2C19. [Related pubchem assays: 410 ]; assay type: ADME; details: read-out: Potency
[32] = molecular target: Cytochrome P450 2D6 (Homo sapiens, UniProt P10635); test: qHTS Assay for Inhibitors and Substrates of Cytochrome P450 2D6. [Related pubchem assays: 410 ]; assay type: ADME; details: read-out: Potency
Sequence of Cytochrome P450 2D6 (P10635 whole entry): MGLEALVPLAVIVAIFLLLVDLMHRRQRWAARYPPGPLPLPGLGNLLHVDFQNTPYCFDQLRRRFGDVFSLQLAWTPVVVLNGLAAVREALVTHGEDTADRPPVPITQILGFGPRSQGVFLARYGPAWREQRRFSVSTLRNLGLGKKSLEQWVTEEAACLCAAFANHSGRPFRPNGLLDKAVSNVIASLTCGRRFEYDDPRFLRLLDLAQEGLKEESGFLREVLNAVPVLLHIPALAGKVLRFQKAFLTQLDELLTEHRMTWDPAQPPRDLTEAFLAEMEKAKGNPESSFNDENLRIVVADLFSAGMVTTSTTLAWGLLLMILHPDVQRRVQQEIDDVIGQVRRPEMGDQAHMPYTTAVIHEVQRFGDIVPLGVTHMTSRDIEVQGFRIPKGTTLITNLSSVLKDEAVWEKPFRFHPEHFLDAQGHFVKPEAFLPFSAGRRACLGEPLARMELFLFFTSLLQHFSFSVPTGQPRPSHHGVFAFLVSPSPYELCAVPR

O=C(O)c1ccc2c(c1)C(c1ccccc1)OC2=O (configuration not stated)
EC50 [1]: > 10 µM (not active)

CCN1CCN(C(=O)c2ccc3c(c2)N(Cc2ccc(C)cc2)CCS3)CC1
IC50 [2]: > 14.6 µM (not active)

COc1ccc(-c2nnc(NC(=O)c3ccc(S(=O)(=O)N4CCc5ccccc5C4)cc3)o2)cc1
EC50 [3]: > 150 µM (inconclusive)
IC50 [4]: > 20 µM (inactive)
EC50 [5]: < 0.1 µM (active)
EC50 [6]: > 12 µM (not active)
IC50 [7]: > 20 µM (inactive)
EC50 [8]: > 20 µM (inactive)
EC50 [9]: > 180 µM (inactive)
EC50 [10]: 9.02 µM (active)
EC50 [11]: > 150 µM (inactive)
EC50 [12]: > 150 µM (inactive)
EC50 [13]: > 20 µM (inactive)
EC50 [14]: 0.256 µM (active)
EC50 [15]: 90.3 µM (active)
IC50 [16]: 19.6 µM (inactive)
EC50 [17]: > 12 µM (not active)
IC50 [18]: > 20 µM (inactive)
EC50 [19]: < 0.1 µM (active)
EC50 [20]: 92.6 µM (active)
EC50 [21]: 0.139 µM (active)
EC50 [22]: 132 µM (inconclusive)
EC50 [23]: > 12 µM (not active)

COc1ccc(C(=O)O/N=C(\N)c2ccccc2)cc1
EC50 [24]: 0.921 µM (active)
AC50 [25]: 37.7 µM (active)

CC(C)n1c(SCC(=O)Nc2nncs2)nnc1-c1ccco1
IC50 [26]: 4.68 µM (active)
IC50 [27]: > 59.6 µM (not active)
IC50 [28]: > 109 µM (not active)
IC50 [29]: 18.1 µM (not active)

CCCCCCC#Cc1cc(OC)c(OC)cc1C(N1CC(C)c2ccccc21)N1CC(C)c2ccccc21 (configuration not stated)
AC50 [30]: 3.16 µM (inconclusive)
AC50 [31]: 3.98 µM (inconclusive)
AC50 [32]: 7.94 µM (inconclusive)
